Where two headings read alike, the source gives them in different places.
Columns and labels:
hVISA NRS2 = assay: Disk diffusion assay (zone of inhibition); format: cell-based, Staphylococcus aureus; conditions: Staphylococcus aureus; for zone of inhibition at 12.5 µg/disc: 12.5 μg in 4% P80/Span 80 (1:1); for zone of inhibition at 200 µg/disc: 200 μg in 4% P80/Span 80 (1:1)
Source text: (§1) The study was designed to identify conditions that improve oritavancin diffusion in agar and consequently yield a zone diameter ≧15 mm for the CLSI quality control strain MSSA ATCC 25923. Excipients that increased the disk diffusion of oritavancin in agar relative to disks containing only oritavancin were identified and selected for further study. […] A prediffusion step at room temperature was introduced to maximize oritavancin diffusion prior to initiation of bacterial growth. In this step, the antimicrobial disks were placed on agar plates seeded with a bacterial isolate and incubated at room temperature for 3 hours. Plates were then incubated overnight at 37° C. Zone diameters around the disks in which bacterial growth was inhibited were measured with a ruler and reported in millimeters.
(§2) Ethanol-sterilized Whatman paper disks (6 mm diameter) were allowed to dry then impregnated with 20 microliters of oritavancin solution containing total amounts ranging from 90 to 360 micrograms. Disks were allowed to dry at room temperature for various times prior to use.
(§3) Bacterial suspensions were prepared and adjusted to an optical density of 0.1 at 600 nm. Standard cation-adjusted Mueller Hinton agar plates (90 mm diameter) were seeded with bacterial suspensions by initially swabbing the center of plate then moving outward towards the edge. The plate was swabbed a second time, perpendicular to the orientation of the first swab. To assess the impact of prediffusion on diameter of inhibition zones, two disks were immediately placed on one half of the plate and the plate was incubated for 3 hours at room temperature. After 3 hours, two additional disks were placed on the other half of the plate then the plate was incubated overnight at 37° C. Zone diameters were measured with a ruler and reported in millimeters.
(§4) Oritavancin powder was dissolved in freshly-prepared solutions of the indicated excipients at concentrations of 0.625, 1.25, 2.5, 5, and 10 mg/ml (adjusted for potency based on lot 875561L00 purity of 83.1%) by vortexing for a minimum of 5 minutes. Oritavancin solutions in the various excipients, while not visually clear, were free from any apparent particulates as assessed visually. Sterile Oxoid blank disks were impregnated with 20 μl of these oritavancin solutions, resulting in oritavancin disk loads ranging from 12.5 to 200 μg. Unless indicated otherwise, disks were allowed to dry overnight at room temperature prior to use.
(§5) Bacterial suspensions from isolated colonies on overnight cation-adjusted Mueller Hinton agar plates were prepared in sterile saline and adjusted to an optical density of 0.1 at 600 nm Standard cation-adjusted Mueller Hinton agar plates (90 mm diameter) were seeded with bacterial suspensions by initially swabbing the center of plate then moving outward. Swabbing was continued at a right angle and then at an oblique angle to the first and second swabs. Disks were placed upon the seeded plates with sterile forceps. Plates were then incubated overnight at 37° C. and inhibition zone diameters were measured with a ruler and reported in millimeters.

VISA NRS402 = assay: Disk diffusion assay (zone of inhibition); format: cell-based, Staphylococcus aureus; conditions: for zone of inhibition at 360 µg/disc: Staphylococcus aureus
Source text: as §1, §2, §3, §4, §5

[1] = NRS2, NRS2, calcium alginate swab, dried overnight, read-out: Inhibition zone diameter
[2] = NRS2, NRS2, cotton swab, dried overnight, estimate of diameter

**Q.** For `CN[C@H](CC(C)C)C(=O)N[C@H]1C(=O)N[C@@H](CC(N)=O)C(=O)N[C@H]2C(=O)N[C@H]3C(=O)N[C@H](C(=O)N[C@H](C(=O)O)c4cc(O)cc(O)c4-c4cc3ccc4O)[C@H](O[C@H]3C[C@](C)(N)[C@@H](O)[C@H](C)O3)c3ccc(c(Cl)c3)Oc3cc2cc(c3O[C@@H]2O[C@H](CO)[C@@H](O)[C@H](O)[C@H]2O[C@H]2C[C@](C)(NCc3ccc(-c4ccc(Cl)cc4)cc3)[C@@H](O)[C@H](C)O2)Oc2ccc(cc2Cl)[C@H]1O` [oritavancin, N-(4-(4-chlorophenyl)benzyl)A82846B], which zone of inhibition at 180 µg/disc (hVISA NRS2; NRS2, 336 h, NRS2, 180 μg oritavancin, 10% P80, disks stored 14 days, prediffusion, read-out: Average zone diameter) is on record?
**A.** 16 mm

**Q.** What about the zone of inhibition at 360 µg/disc (hVISA NRS2; NRS2, 336 h, NRS2, 360 μg in 5% P80, Experiment 1, disks stored 14 days, no prediffusion, read-out: Zone diameter (mm ± SD)) of the same compound?
**A.** 15.5 mm

**Q.** What about the zone of inhibition at 360 µg/disc (hVISA NRS2; NRS2, 336 h, NRS2, 360 μg oritavancin, 5% P80, disks stored 14 days, prediffusion, read-out: Average zone diameter) of the same compound?
**A.** 18 mm

**Q.** And the zone of inhibition at 360 µg/disc (hVISA NRS2; NRS2, 336 h, NRS2, 360 μg oritavancin, 10% P80, disks stored 14 days, prediffusion, read-out: Average zone diameter)?
**A.** 16.5 mm

**Q.** And the zone of inhibition at 12.5 µg/disc (hVISA NRS2; [1])?
**A.** 12.5 mm

**Q.** And the zone of inhibition at 12.5 µg/disc (hVISA NRS2; [2])?
**A.** 13 mm

**Q.** And the zone of inhibition at 1250 µg/mL (hVISA NRS2; NRS2, NRS2, 25 μg (20 μl of 1.25 mg/ml) in 4% P80/Span 80 (1:1), calcium alginate swab, dried overnight, read-out: Inhibition zone diameter)?
**A.** 16 mm

**Q.** And the zone of inhibition at 25 µg/disc (hVISA NRS2; NRS2, NRS2, 25 μg in 4% P80/Span 80 (1:1), cotton swab, dried overnight, estimate of diameter)?
**A.** 17 mm

**Q.** And the zone of inhibition at 50 µg/disc (hVISA NRS2; NRS2, NRS2, 50 μg in 4% P80/Span 80 (1:1), calcium alginate swab, dried overnight, read-out: Inhibition zone diameter)?
**A.** 15 mm

**Q.** What about the zone of inhibition at 50 µg/disc (hVISA NRS2; NRS2, NRS2, 50 μg in 4% P80/Span 80 (1:1), cotton swab, dried overnight, estimate of diameter) of the same compound?
**A.** 17 mm

**Q.** And the zone of inhibition at 50 µg/disc (hVISA NRS2; NRS2, NRS2, 50 μg, 4% P80/Span 80 ratio 50:50, dried overnight, estimate of diameter)?
**A.** 16 mm

**Q.** And the zone of inhibition at 50 µg/disc (hVISA NRS2; NRS2, NRS2, 50 μg, 4% P80/Span 80 ratio 60:40, dried overnight, estimate of diameter)?
**A.** 15 mm

**Q.** What about the zone of inhibition at 50 µg/disc (hVISA NRS2; NRS2, NRS2, 50 μg, 4% P80/Span 80 ratio 70:30, dried overnight, estimate of diameter) of the same compound?
**A.** 14 mm

**Q.** And the zone of inhibition at 50 µg/disc (hVISA NRS2; NRS2, NRS2, 50 μg, 4% P80/Span 80 ratio 80:20, dried overnight, estimate of diameter)?
**A.** 14 mm

**Q.** What about the zone of inhibition at 50 µg/disc (hVISA NRS2; NRS2, NRS2, 50 μg, 4% P80/Span 80 ratio 90:10, dried overnight, estimate of diameter) of the same compound?
**A.** 12 mm

**Q.** And the zone of inhibition at 100 µg/disc (hVISA NRS2; NRS2, NRS2, 100 μg in 4% P80/Span 80 (1:1), calcium alginate swab, dried overnight, read-out: Inhibition zone diameter)?
**A.** 11 mm

**Q.** And the zone of inhibition at 200 µg/disc (hVISA NRS2; [1])?
**A.** 10 mm

**Q.** And the zone of inhibition at 200 µg/disc (hVISA NRS2; [2])?
**A.** 13 mm

**Q.** And the zone of inhibition at 360 µg/disc (hVISA NRS2; NRS2, NRS2, 360 μg in 5% P80, Average of experiments, no prediffusion, read-out: Zone diameter (mm ± SD))?
**A.** 14.9 ± 0.8 mm

**Q.** And the zone of inhibition at 360 µg/disc (hVISA NRS2; NRS2, NRS2, 360 μg in 5% P80, Average of experiments, prediffusion, read-out: Zone diameter (mm ± SD))?
**A.** 17.3 ± 0.3 mm

**Q.** And the zone of inhibition at 360 µg/disc (hVISA NRS2; NRS2, NRS2, 360 μg in 5% P80, Experiment 1, disks stored 14 days, 3 h prediffusion at room temperature, read-out: Zone diameter (mm ± SD))?
**A.** 17.5 mm

**Q.** And the zone of inhibition at 360 µg/disc (hVISA NRS2; NRS2, NRS2, 360 μg in 5% P80, Experiment 2, disks stored 8 days, 3 h prediffusion at room temperature, read-out: Zone diameter (mm ± SD))?
**A.** 17 mm

**Q.** What about the zone of inhibition at 360 µg/disc (hVISA NRS2; NRS2, NRS2, 360 μg oritavancin, excipient 5% P80, disks stored 5 days at room temperature, 3 h prediffusion, average of 2 disks, read-out: Average zone diameter) of the same compound?
**A.** 17.8 mm

**Q.** And the zone of inhibition at 1250 µg/mL (hVISA NRS2; NRS2, NRS2, 20 μl of 1.25 mg/ml oritavancin in 1% poly(ethylene glycol) sorbitol hexaoleate, read-out: Inhibition zone diameter)?
**A.** 9 mm

**Q.** What about the zone of inhibition at 1250 µg/mL (hVISA NRS2; NRS2, NRS2, 20 μl of 1.25 mg/ml oritavancin in 5% Brij 30, read-out: Inhibition zone diameter) of the same compound?
**A.** 8 mm

**Q.** And the zone of inhibition at 1250 µg/mL (hVISA NRS2; NRS2, NRS2, 20 μl of 1.25 mg/ml oritavancin in 5% Merpol SE, read-out: Inhibition zone diameter)?
**A.** 11 mm

**Q.** What about the Inhibition zone diameter (VISA NRS402; 25 μg (1.25 mg/ml) in 4% P80/Span 80 (1:1), dried overnight) of the same compound?
**A.** no zone

**Q.** And the zone of inhibition at 360 µg/disc (VISA NRS402; 360 μg in 5% P80, Average of experiments, no prediffusion, read-out: Zone diameter (mm ± SD))?
**A.** 13.1 ± 0.3 mm

**Q.** What about the zone of inhibition at 360 µg/disc (VISA NRS402; 360 μg in 5% P80, Average of experiments, prediffusion, read-out: Zone diameter (mm ± SD)) of the same compound?
**A.** 14.5 ± 0.4 mm

**Q.** What about the zone of inhibition at 360 µg/disc (VISA NRS402; 360 μg in 5% P80, Experiment 1, disks stored 14 days, 3 h prediffusion at room temperature, read-out: Zone diameter (mm ± SD)) of the same compound?
**A.** 14.8 ± 0.4 mm

**Q.** What about the zone of inhibition at 360 µg/disc (VISA NRS402; 360 μg in 5% P80, Experiment 2, disks stored 8 days, 3 h prediffusion at room temperature, read-out: Zone diameter (mm ± SD)) of the same compound?
**A.** 14.3 ± 0.4 mm

**Q.** And the zone of inhibition at 360 µg/disc (VISA NRS402; 360 μg oritavancin, excipient 5% P80, disks stored 5 days at room temperature, 3 h prediffusion, average of 2 disks, read-out: Average zone diameter)?
**A.** 14.8 mm

**Q.** And the zone of inhibition at 360 µg/disc (VISA NRS402; 3 h, 360 μg oritavancin, excipient 10% HPCD, disks made same day, 3 h prediffusion, average of 2 disks, read-out: Average zone diameter)?
**A.** 17.5 mm

**Q.** And the zone of inhibition at 360 µg/disc (VISA NRS402; 192 h, 360 μg in 5% P80, Experiment 2, disks stored 8 days, no prediffusion, read-out: Zone diameter (mm ± SD))?
**A.** 13 mm

**Q.** And the zone of inhibition at 360 µg/disc (VISA NRS402; 336 h, 360 μg in 5% P80, Experiment 1, disks stored 14 days, no prediffusion, read-out: Zone diameter (mm ± SD))?
**A.** 13.3 ± 0.4 mm
